ChEMBL document CHEMBL4219231, “Nε-Acryloyllysine Piperazides as Irreversible Inhibitors of Transglutaminase 2: Synthesis, Structure-Activity Relationships, and Pharmacokinetic Profiling” (J Med Chem, 2018)

What was measured:
[1] = Inhibition of guinea pig TGase 2 using F-Cad/DMC as substrate preincubated for 30 mins followed by substrate addition measured at 30 secs interval over 900 secs by fluorescence anisotropy assay; set-up: species or system Cavia porcellus
[2] = target: T1, Protein-glutamine gamma-glutamyltransferase (Homo sapiens, UniProt P21980); assay: Reversible inhibition of human TGase 2 using Z-Glu(HMC)-Gly-OH as substrate measured at 20 secs interval over 900 secs by fluorimetric assay
T1 sequence (P21980 whole entry): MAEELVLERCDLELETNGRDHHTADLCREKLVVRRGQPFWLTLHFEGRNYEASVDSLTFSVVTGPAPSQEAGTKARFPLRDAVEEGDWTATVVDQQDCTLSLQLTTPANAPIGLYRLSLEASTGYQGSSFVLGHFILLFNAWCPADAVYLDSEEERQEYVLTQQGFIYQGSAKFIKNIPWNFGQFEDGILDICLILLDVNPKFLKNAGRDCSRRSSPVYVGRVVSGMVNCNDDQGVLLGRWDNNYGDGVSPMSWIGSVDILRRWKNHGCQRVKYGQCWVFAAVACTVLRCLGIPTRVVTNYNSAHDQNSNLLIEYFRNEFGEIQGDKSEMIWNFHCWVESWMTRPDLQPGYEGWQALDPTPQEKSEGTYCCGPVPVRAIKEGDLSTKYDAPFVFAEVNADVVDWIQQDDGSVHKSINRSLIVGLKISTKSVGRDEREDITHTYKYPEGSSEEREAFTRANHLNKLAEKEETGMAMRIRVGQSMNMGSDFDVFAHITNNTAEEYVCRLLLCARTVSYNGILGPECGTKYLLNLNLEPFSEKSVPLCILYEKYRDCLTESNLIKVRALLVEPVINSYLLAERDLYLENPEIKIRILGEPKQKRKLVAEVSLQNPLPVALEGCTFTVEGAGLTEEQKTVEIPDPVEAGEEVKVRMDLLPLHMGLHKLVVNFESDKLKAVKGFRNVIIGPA

[3] = target: T1, Protein-glutamine gamma-glutamyltransferase; assay: Inhibition of human TGase 2 using R-I-Cad/DMC as substrate preincubated for 5 mins followed by substrate addition measured at 30 secs interval over 900 secs by fluorescence anisotropy assay
[4] = Membrane retention, RM of the compound; type: physicochemical
[5] = Chromatographic hydrophobicity index in immobilized artificial membrane at pH 7.4 by HPLC method; type: ADME, cell membranes
[6] = in vitro; conditions: PAMPA
Description: Effective permeability of the compound by PAMPA assay

[7] = n-octanol-phosphate buffer partition coefficient, log D of compound at pH 7.4 by 19F NMR analysis; type: physicochemical
[8] = target: T1, Protein-glutamine gamma-glutamyltransferase; assay: Irreversible inhibition of human TGase 2 using Z-Glu(HMC)-Gly-OH as substrate measured at 20 secs interval over 900 secs by fluorimetric assay
[9] = Metabolic stability in mouse liver microsomes assessed as parent compound remaining at 100 uM measured after 60 mins by HPLC-UV analysis; type: ADME, microsome; conditions: for Stability: microsomes, 1 h, 100 µM

SMILES | Rm [4] | CHI [5] | Papp [6] | Ki [8] | other results
NCCCCCNC(=S)Nc1ccc2c(c1)C(=O)OC21c2ccc(O)cc2Oc2cc(O)ccc21 |  |  |  |  | Ki [1]: 9.15 µM
C=CC(=O)NCCCC[C@H](NC(=O)Cc1ccccc1)C(=O)N1CCN(c2cccc(OCCF)n2)CC1 |  |  |  |  | Ki [2]: 7.32 µM; IC50 [3]: 0.39 µM; IC50 [1]: 0.27 µM
C=CC(=O)NCCCC[C@H](NC(=O)Cc1ccccc1)C(=O)N1CCN(Cc2ccc(F)cc2)CC1 | 12% | 32 | 10.3 ×10⁻⁶ cm/s | 7.6 µM | logD [7]: 2.65
C=CC(=O)NCCCC[C@H](NC(=O)Cc1ccccc1)C(=O)N1CCN(c2cccnc2)CC1 |  |  |  | 2.6 µM | 
C=CC(=O)NCCCC[C@H](NC(=O)Cc1ccc(F)cc1)C(=O)N1CCN(c2cccc(C)n2)CC1 | 10% | 32.4 | 11.4 ×10⁻⁶ cm/s |  | logD [7]: 0.36
C=CC(=O)NCCCC[C@H](NC(=O)Cc1ccccc1)C(=O)N1CCN(c2cccc(-c3ccccc3)n2)CC1 | 64% | 39 | 21.9 ×10⁻⁶ cm/s |  | Ki [2]: 7.76 µM; IC50 [3]: 0.2 µM; IC50 [1]: 0.15 µM
C=CC(=O)NCCCC[C@H](NC(=O)Cc1ccccc1)C(=O)N1CCN(c2ccncc2)CC1 | 31% | 25.4 | 0.51 ×10⁻⁶ cm/s | 2.55 µM | Stability [9]: Stable
C=CC(=O)NCCCC[C@H](NC(=O)Cc1ccccc1)C(=O)N1CCN(c2cccc(I)n2)CC1 |  |  |  |  | Ki [2]: 2.92 µM; IC50 [3]: 0.14 µM
C=CC(=O)NCCCC[C@H](NC(=O)Cc1cccs1)C(=O)N1CCN(c2cccc(C)n2)CC1 |  |  |  | 5.56 µM | 
C=CC(=O)NCCCC[C@H](NC(=O)Cc1ccccc1)C(=O)N1CCN(c2cccc(C(C)(C)C)n2)CC1 | 69% | 39.5 | 21.9 ×10⁻⁶ cm/s |  | Ki [2]: 3.5 µM; IC50 [3]: 0.17 µM
COCCc1ccc(OCC(O)CNC(C)C)cc1 (stereo unspecified) [METOPROLOL] |  |  | 4.04 ×10⁻⁶ cm/s |  | 
C=CC(=O)NCCCC[C@H](NC(=O)Cc1ccc(F)cc1)C(=O)N1CCN(c2ccc([N+](=O)[O-])nc2)CC1 | 9% | 28.3 | 1.97 ×10⁻⁶ cm/s | 5.02 µM | Stability [9]: Stable; logD [7]: 1.85
C=CC(=O)NCCCC[C@H](NC(=O)Cc1ccccc1)C(=O)N1CCN(c2ccccn2)CC1 |  |  |  |  | Ki [2]: 8.42 µM; IC50 [3]: 0.34 µM; Stability [9]: Unstable; IC50 [1]: 0.31 µM
C=CC(=O)NCCCC[C@H](NC(=O)Cc1ccc(I)cc1)C(=O)N1CCN(c2cccc(C)n2)CC1 |  |  |  |  | IC50 [1]: 0.16 µM
C=CC(=O)NCCCC[C@H](NC(=O)c1ccc(F)cc1)C(=O)N1CCN(c2ccc([N+](=O)[O-])nc2)CC1 | 12% | 28.5 | 4.08 ×10⁻⁶ cm/s | 14 µM | Stability [9]: Stable; logD [7]: 2.21
CCC(=O)NCCCC[C@H](NC(=O)Cc1ccccc1)C(=O)N1CCN(c2cccc(C)n2)CC1 |  |  |  |  | Ki [2]: 64.3 µM
C=CC(=O)NCCCC[C@H](NC(=O)Cc1cccc(F)c1)C(=O)N1CCN(c2cccc(C)n2)CC1 | 24% | 30.9 | 12.5 ×10⁻⁶ cm/s |  | 
CCN(CC)c1ccc2c(-c3ccccc3C(=O)N3CCC(C(=O)NCCCCCN)CC3)c3ccc(=[N+](CC)CC)cc-3oc2c1 |  |  |  |  | Ki [3]: 6.81 µM; Ki [1]: 7.14 µM
C=CC(=O)NCCCC[C@H](NC(=O)Cc1ccccc1)C(=O)N1CCN(c2ccc(C(F)(F)F)nc2)CC1 | 11% | 31.8 | 8.98 ×10⁻⁶ cm/s | 6.77 µM | Stability [9]: Stable; logD [7]: 2.13

SMILES | Rm [4] | CHI [5] | Papp [6] | Ki [8] | other results
C=CC(=O)NCCCC[C@H](NC(=O)Nc1ccc(F)cc1)C(=O)N1CCN(c2cccc(C)n2)CC1 | 11% | 34.3 | 12.5 ×10⁻⁶ cm/s |  | logD [7]: 0.47; IC50 [1]: 0.46 µM
C=CC(=O)NCCCC[C@H](NC(=O)Cc1ccccc1)C(=O)N1CCN(c2ccc(C(=O)OC)nc2)CC1 |  |  |  | 7.12 µM | 
C=CC(=O)NCCCC[C@H](NC(=O)Cc1ccccc1)C(=O)N1CCN(c2ccc(F)nc2)CC1 | 4% | 26.8 | 3.54 ×10⁻⁶ cm/s | 10.9 µM | logD [7]: 1.66
NS(=O)(=O)c1cc2c(cc1Cl)NCNS2(=O)=O [HYDROCHLOROTHIAZIDE] |  |  | 0.06 ×10⁻⁶ cm/s |  | 
C=CC(=O)NCCCC[C@H](NC(=O)Nc1ccccc1)C(=O)N1CCN(c2ccc([N+](=O)[O-])nc2)CC1 |  |  |  | 7.96 µM | 
C=CC(=O)NCCCC[C@H](NC(=O)Cc1ccccc1F)C(=O)N1CCN(c2cccc([N+](=O)[O-])n2)CC1 | 12% | 30.7 | 8.74 ×10⁻⁶ cm/s | 1.98 µM | logD [7]: 2.25
C=CC(=O)NCCCC[C@H](NC(=O)Cc1ccccc1)C(=O)N1CCN(C(=O)c2ccc([N+](=O)[O-])cc2)CC1 |  |  |  | 7.71 µM | 
C=CC(=O)NCCCC[C@H](NC(=O)Cc1ccccc1)C(=O)N1CCN(c2ccc([N+](=O)[O-])cc2)CC1 |  |  |  | 2.52 µM | 
C=CC(=O)NCCCC[C@H](NC(=O)Cc1ccccc1F)C(=O)N1CCN(c2cccc(C)n2)CC1 | 21% | 30.1 | 11.4 ×10⁻⁶ cm/s | 4.49 µM | 
C=CC(=O)NCCCC[C@H](NC(=O)Cc1ccccc1)C(=O)N1CCN(C(=O)c2ccc(F)cc2)CC1 | -3% | 25 | 3.05 ×10⁻⁶ cm/s | 13.4 µM | remaining at 1 h, 100 µM ([9]; liver microsomes, read-out: Stability): 85%; logD [7]: 1.6
C=CC(=O)NCCCC[C@@H](NC(=O)Cc1ccccc1)C(=O)N1CCN(c2cccc(C)n2)CC1 |  |  |  |  | IC50 [1]: 0.79 µM
C=CC(=O)NCCCC[C@H](NC(=O)Cc1ccccc1)C(=O)N1CCN(S(=O)(=O)c2cccc3c(N(C)C)cccc23)CC1 | 38% | 37.7 | 7.68 ×10⁻⁶ cm/s |  | 
C=CC(=O)NCCCC[C@H](NC(=O)C(F)(F)F)C(=O)N1CCN(c2cccc(-c3ccccc3)n2)CC1 |  |  |  | 14.3 µM | 
C=CC(=O)NCCCC[C@H](NC(=O)c1ccc(F)cc1)C(=O)N1CCN(c2cccc(C)n2)CC1 | 16% | 31.4 | 12.7 ×10⁻⁶ cm/s |  | logD [7]: 0.28
C=CC(=O)NCCCC[C@H](NC(=O)Cc1ccccc1)C(=O)N1CCN(c2cccc(C)c2)CC1 |  |  |  | 7.55 µM | 
CCC(=O)NCCCC[C@H](NC(=O)Cc1ccccc1)C(=O)N1CCN(c2ccc([N+](=O)[O-])nc2)CC1 |  |  |  |  | Ki [2]: 15 µM
C=CC(=O)NCCCC[C@H](NC(=O)Cc1ccccc1)C(=O)N1CCN(c2cccc(Cl)n2)CC1 |  |  |  |  | Ki [2]: 4.43 µM; IC50 [3]: 0.18 µM; IC50 [1]: 0.16 µM
C=CC(=O)NCCCC[C@H](NC(=O)Cc1ccccc1)C(=O)N1CCN(c2cccc(Br)n2)CC1 |  |  |  |  | Ki [2]: 5.65 µM; IC50 [3]: 0.22 µM; IC50 [1]: 0.2 µM
C=CC(=O)NCCCC[C@H](NC(=O)Cc1ccccc1)C(=O)N1CCN(c2ccc(C(N)=O)nc2)CC1 |  |  |  | 5.72 µM | 
